Test results from US20090054392A1, “NAPHTHYLPYRIMIDINE, NAPHTHYLPYRAZINE AND NAPHTHYLPYRIDAZINE ANALOGS AND THEIR USE AS AGONISTS OF THE WNT-BETA-CATENIN CELLULAR MESSAGING SYSTEM” (Wyeth, priority 2007, published 2009).

Test system: Dkk1-LRP5-TCF-Luciferase
Experiment: Functional Dkk1-LRP5-TCF-Luciferase Assay in U2OS Cells
Conditions: for fold induction at 2 µM / EC50 / fold induction at 20 µM: Homo sapiens, U2OS; for fold induction at 2 µM: read-out: B = TCF ACTIVITY/DMSO CONTROL Fold induction @ 2.0 uM, 2.0 uM compound; for fold induction at 20 µM: read-out: C = TCF ACTIVITY/DMSO CONTROL Fold induction @ 20.0 uM, 20.0 uM compound; for A = MAX FOLD Induction/DMSO CONTROL: maximum fold induction over DMSO control

Row | EC50 [µM] | A = MAX FOLD Induction/DMSO CONTROL [fold] | SMILES | fold induction at 2 µM | fold induction at 20 µM
1 | – | – | CN(C)CCN(C)[C@@H]1CCN(c2nccc(-c3ccc4ccccc4c3)n2)C1 [N,N,N′-trimethyl-N′-{(3R)-1-[4-(2-naphthyl)pyrimidin-2-yl]pyrrolidin-3-yl}ethane-1,2-diamine] | 2.4 | –
2 | – | – | CN(C)CCCN(C)[C@@H]1CCN(c2nccc(-c3ccc4ccccc4c3)n2)C1 [N,N,N′-trimethyl-N′-{(3R)-1-[4-(2-naphthyl)pyrimidin-2-yl]pyrrolidin-3-yl}propane-1,3-diamine] | 1.3 | –
3 | – | – | CN(C)CCN(C)[C@H]1CCN(c2nccc(-c3ccc4ccccc4c3)n2)C1 [N,N,N′-trimethyl-N′-{(3S)-1-[4-(2-naphthyl)pyrimidin-2-yl]pyrrolidin-3-yl}ethane-1,2-diamine] | 1.2 | –
4 | – | – | CN(C)CCCN(C)[C@H]1CCN(c2nccc(-c3ccc4ccccc4c3)n2)C1 [N,N,N′-trimethyl-N′-{(3S)-1-[4-(2-naphthyl)pyrimidin-2-yl]pyrrolidin-3-yl}propane-1,3-diamine] | 2 | –
5 | 28.2 | 3.680 | CCN(CC)C1CCN(c2nccc(-c3ccc4ccccc4c3)n2)C1 (centres unmarked) [N,N-diethyl-1-[4-(2-naphthyl)pyrimidin-2-yl]pyrrolidin-3-amine] | 1.06 | 2.67
6 | – | 1.260 | CCN(CC)c1nccc(-c2ccc3ccccc3c2)n1 [N,N-diethyl-4-(2-naphthyl)pyrimidin-2-amine] | 1.75 | 1.68
7 | – | – | CCN(CC)C(=O)N1CCC(CNc2nccc(-c3ccc4ccccc4c3)n2)CC1 [N,N-diethyl-4-({[4-(2-naphthyl)pyrimidin-2-yl]amino}methyl)piperidine-1-carboxamide] | 1.22 | 1.04
8 | 30 | 3.070 | CCN(CC)C(=O)N1CCCN(c2nccc(-c3ccc4ccccc4c3)n2)CC1 [N,N-diethyl-4-[4-(2-naphthyl)pyrimidin-2-yl]-1,4-diazepane-1-carboxamide] | – | 1.49
9 | – | – | CCN(CC)C(=O)N1CCC(Nc2nccc(-c3ccc4ccccc4c3)n2)CC1 [N,N-diethyl-4-{[4-(2-naphthyl)pyrimidin-2-yl]amino}piperidine-1-carboxamide] | 1.65 | –
10 | – | – | CCN(CC)C(=O)N1CCC(N(C)c2nccc(-c3ccc4ccccc4c3)n2)CC1 [N,N-diethyl-4-{methyl[4-(2-naphthyl)pyrimidin-2-yl]amino}piperidine-1-carboxamide] | 0.86 | 1.32
11 | – | – | CCN(CC)C(=O)NCCC1CCN(c2nccc(-c3ccc4ccccc4c3)n2)CC1 [N,N-diethyl-N′-(2-{1-[4-(2-naphthyl)pyrimidin-2-yl]piperidin-4-yl}ethyl)urea] | 1.13 | 0.33
12 | – | 1.270 | CCN(CC)C(=O)N[C@@H]1CCN(c2nccc(-c3ccc4ccccc4c3)n2)C1 [N,N-diethyl-N′-{(3R)-1-[4-(2-naphthyl)pyrimidin-2-yl]pyrrolidin-3-yl}urea] | 1.22 | 1.8
13 | – | – | CCN(CC)C(=O)N[C@H]1CCN(c2nccc(-c3ccc4ccccc4c3)n2)C1 [N,N-diethyl-N′-{(3S)-1-[4-(2-naphthyl)pyrimidin-2-yl]pyrrolidin-3-yl}urea] | 1.83 | –
14 | – | – | CN(C)C(=O)[C@H]1CCCN1c1nccc(-c2ccc3ccccc3c2)n1 [N,N-dimethyl-1-[4-(2-naphthyl)pyrimidin-2-yl]-D-prolinamide] | 1.02 | 1.2
15 | – | – | CN(C)C(=O)[C@@H]1CCCN1c1nccc(-c2ccc3ccccc3c2)n1 [N,N-dimethyl-1-[4-(2-naphthyl)pyrimidin-2-yl]-L-prolinamide] | 1 | 1.24
16 | 4.11 | 5.503 | CN(C)C1CCN(c2nccc(-c3ccc4ccccc4c3)n2)C1 (centres unmarked) [N,N-dimethyl-1-[4-(2-naphthyl)pyrimidin-2-yl]pyrrolidin-3-amine] | 2 | 1.91
17 | – | – | CN(C)CC1CCN(c2nccc(-c3ccc4ccccc4c3)n2)CC1 [N,N-dimethyl-1-{1-[4-(2-naphthyl)pyrimidin-2-yl]piperidin-4-yl}methanamine] | 1.85 | –
18 | 1.02 | 3.620 | CN(C)C[C@H]1CCN(c2nccc(-c3ccc4ccccc4c3)n2)C1 [N,N-dimethyl-1-{(3R)-1-[4-(2-naphthyl)pyrimidin-2-yl]pyrrolidin-3-yl}methanamine] | 2.83 | 0.01
19 | – | 3.620 | CN(C)C[C@@H]1CCN(c2nccc(-c3ccc4ccccc4c3)n2)C1 [N,N-dimethyl-1-{(3S)-1-[4-(2-naphthyl)pyrimidin-2-yl]pyrrolidin-3-yl}methanamine] | 2.26 | 2.26
20 | – | 2.440 | CN(C)CCN1CCN(c2nccc(-c3ccc4ccccc4c3)n2)CC1 [N,N-dimethyl-2-{4-[4-(2-naphthyl)pyrimidin-2-yl]piperazin-1-yl}ethanamine] | 2.55 | 0.01
21 | – | – | CN(C)S(=O)(=O)N1CC(CNc2nccc(-c3ccc4ccccc4c3)n2)C1 [N,N-dimethyl-3-({[4-(2-naphthyl)pyrimidin-2-yl]amino}methyl)azetidine-1-sulfonamide] | 1.47 | 1.14
22 | – | – | CN(C)CCCN1CCN(c2nccc(-c3ccc4ccccc4c3)n2)CC1 [N,N-dimethyl-3-{4-[4-(2-naphthyl)pyrimidin-2-yl]piperazin-1-yl}propan-1-amine] | 1.87 | –
23 | – | – | CN(C)C(=O)N1CCC(CNc2nccc(-c3ccc4ccccc4c3)n2)CC1 [N,N-dimethyl-4-({[4-(2-naphthyl)pyrimidin-2-yl]amino}methyl)piperidine-1-carboxamide] | 0.87 | 1.24
24 | – | – | CN(C)S(=O)(=O)N1CCC(CNc2nccc(-c3ccc4ccccc4c3)n2)CC1 [N,N-dimethyl-4-({[4-(2-naphthyl)pyrimidin-2-yl]amino}methyl)piperidine-1-sulfonamide] | – | 1.21
25 | – | 1.520 | CN(C)C(=O)N1CCCN(c2nccc(-c3ccc4ccccc4c3)n2)CC1 [N,N-dimethyl-4-[4-(2-naphthyl)pyrimidin-2-yl]-1,4-diazepane-1-carboxamide] | 1.2 | 2.26
26 | – | – | CN(C)S(=O)(=O)N1CCCN(c2nccc(-c3ccc4ccccc4c3)n2)CC1 [N,N-dimethyl-4-[4-(2-naphthyl)pyrimidin-2-yl]-1,4-diazepane-1-sulfonamide] | – | 0.63
27 | 0.64 | 1.810 | CN(C)C(=O)N1CCC(Nc2nccc(-c3ccc4ccccc4c3)n2)CC1 [N,N-dimethyl-4-{[4-(2-naphthyl)pyrimidin-2-yl]amino}piperidine-1-carboxamide] | 1.13 | 1.58
28 | 12 | 3.210 | CN(C)S(=O)(=O)N1CCC(Nc2nccc(-c3ccc4ccccc4c3)n2)CC1 [N,N-dimethyl-4-{[4-(2-naphthyl)pyrimidin-2-yl]amino}piperidine-1-sulfonamide] | 0.97 | 1.75
